{"source": "patent US8821847B2", "about": "“Perfume compositions” (Givaudan Nederland Services B.V., priority 2006, dated 2014)", "system": "P. vulgaris NCTC4175", "experiment": "Urease assay: effect of fragrance on ammonia production (pH of urea-supplemented microbial suspension)", "type": "cell-based", "conditions": "result in words", "procedure": "Urease Assay—Estimation of Fragrance and Fragrance Ingredients Effect on Ammonia Production The method adopted was based on the rapid method devised by C. A. Stuart, Elizabeth van Stratum and Robert Rustigan Further Studies on Urease Production by Proteus and Related Organisms J. Bacteriol. 1945, 49:437-444. SSR Medium: 380 ml distilled water, 364 mg KH2PO4, 380 mg Na2HPO4, 8 g Urea, 40 mg Yeast extract, 20 ml 0.02% phenol red indicator, pH 6.8, solution filter sterilised. Culture: Liquid culture of P. vulgaris NCTC4175 was prepared by adding loops of fresh culture from solid media (Tryptone Soya Agar) to sterile 0.1% special peptone solution. Absorbance of culture was adjusted to be OD610 nm>2.3 Fragrances were aseptically prepared at 2500 ppm in medium in duplicate (5 ml volumes) using solubiser Synperonic 91/10 at ratio of 1:2 fragrance: solubiliser. In addition 5 ml volumes of positive and negative controls were prepared. Positive controls and all test solutions were inoculated by adding 200 μl of prepared culture, mixed and incubated for 24 hours @37° C. No culture was added to the negative growth controls. Initially solutions were orange in colour. Urease activity can be noted by the production of a purple/red colour. The degree of urease activity/ammonia production was assessed by pH electrode."}
{"smiles": "CCC(=O)N(CC)c1cccc(C)c1", "note": "[N-ethyl-N-(3-methylphenyl)propananoide, N-ethyl-N-(3-methylphenyl)propanamide]", "values": [{"measurement": "urease inhibitory efficacy", "value": "highly active"}]}
